Experimental data: ChEMBL document CHEMBL1143512, “Antitubercular agents. Part 2: new thiolactomycin analogues active against Mycobacterium tuberculosis” (2005)
In brackets after ≈: the same amount, converted by molar mass.

Experiments:
Type in all cases: functional
[1] = system: Mycobacterium tuberculosis; assay: Minimum inhibitory concentration against Mycobacterium tuberculosis H37Rv ATCC 27294
[2] = system: Mycobacterium tuberculosis; assay: Minimum inhibitory concentration against Mycobacterium tuberculosis sensitive clinical isolates
[3] = system: Mycobacterium intracellulare; assay: Minimum inhibitory concentration against Mycobacterium intracellular ATCC 13950
Mycobacterium avium = assay: Minimum inhibitory concentration against Mycobacterium avium ATCC 49601
[4] = system: Mycobacterium tuberculosis; assay: Minimum inhibitory concentration against Mycobacterium tuberculosis sensitive clinical isolates; Range:4-16 ug/ml
[5] = system: Mycobacterium tuberculosis; assay: Minimum inhibitory concentration against Mycobacterium tuberculosis sensitive clinical isolates; Range: 1-4 ug/ml
[6] = system: Mycobacterium tuberculosis; assay: Minimum inhibitory concentration against Mycobacterium tuberculosis sensitive clinical isolates; Range: 0.125-0.25 ug/ml

CC1=C(OCCCCCCCCCCN2CCN(C)CC2)C(C)SC1=O (stereo not given)
MIC [1]: > 16 mg/L
MIC [2]: > 16 mg/L
MIC [3]: > 16 mg/L
MIC (Mycobacterium avium): > 16 mg/L

CC1=C(OCCCCN2CCOCC2)C(C)SC1=O (stereo not given)
MIC [1]: > 16 mg/L
MIC [2]: > 16 mg/L
MIC [3]: > 16 mg/L
MIC (Mycobacterium avium): > 16 mg/L

CC1=C(OCCCCCN2CCOCC2)C(C)SC1=O (stereo not given)
MIC [1]: > 16 mg/L
MIC [2]: > 16 mg/L
MIC [3]: > 16 mg/L
MIC (Mycobacterium avium): > 16 mg/L

CC1=C(OCCCCCCCCCCBr)C(C)SC1=O (stereo not given)
MIC [1]: 4 mg/L (≈ 11 µM)
MIC [3]: > 16 mg/L
MIC (Mycobacterium avium): > 16 mg/L
MIC [4]: 16 mg/L (≈ 44 µM)

CC1=C(OCCCCCCCCCCN2CCOCC2)C(C)SC1=O (stereo not given)
MIC [1]: > 16 mg/L
MIC [2]: > 16 mg/L
MIC [3]: > 16 mg/L
MIC (Mycobacterium avium): > 16 mg/L

CC1=C(OCCCBr)C(C)SC1=O (stereo not given)
MIC [1]: > 16 mg/L
MIC [2]: > 16 mg/L
MIC [3]: > 16 mg/L
MIC (Mycobacterium avium): > 16 mg/L

CC1=C(OCCCCCCCCBr)C(C)SC1=O (stereo not given)
MIC [1]: > 16 mg/L
MIC [2]: > 16 mg/L
MIC [3]: > 16 mg/L
MIC (Mycobacterium avium): > 16 mg/L

CC1=C(OCCCCBr)C(C)SC1=O (stereo not given)
MIC [1]: > 16 mg/L
MIC [2]: > 16 mg/L
MIC [3]: > 16 mg/L
MIC (Mycobacterium avium): > 16 mg/L

COC(=O)CSCCCCCCCCCCOC1=C(C)C(=O)SC1C (stereo not given)
MIC [1]: > 16 mg/L
MIC [2]: > 16 mg/L
MIC [3]: > 16 mg/L
MIC (Mycobacterium avium): > 16 mg/L

COC(=O)CSCCCCCCOC1=C(C)C(=O)SC1C (stereo not given)
MIC [1]: > 16 mg/L
MIC [2]: > 16 mg/L
MIC [3]: > 16 mg/L
MIC (Mycobacterium avium): > 16 mg/L

CC1=C(OCCCN2CCN(C)CC2)C(C)SC1=O (stereo not given)
MIC [1]: > 16 mg/L
MIC [2]: > 16 mg/L
MIC [3]: > 16 mg/L
MIC (Mycobacterium avium): > 16 mg/L

COC(=O)CSCCCCCCCCOC1=C(C)C(=O)SC1C (stereo not given)
MIC [5]: 4 mg/L (≈ 11.1 µM)
MIC [1]: 1 mg/L (≈ 2.77 µM)
MIC [3]: 4 mg/L (≈ 11.1 µM)
MIC (Mycobacterium avium): 8 mg/L (≈ 22.2 µM)

CC1=C(OCCCCCCN2CCN(C)CC2)C(C)SC1=O (stereo not given)
MIC [1]: > 16 mg/L
MIC [2]: > 16 mg/L
MIC [3]: > 16 mg/L
MIC (Mycobacterium avium): > 16 mg/L

NNC(=O)c1ccncc1 [ISONIAZID]
MIC [1]: 0.25 mg/L (≈ 1.82 µM)
MIC [3]: 8 mg/L (≈ 58.3 µM)
MIC [6]: 0.25 mg/L (≈ 1.82 µM)
MIC (Mycobacterium avium): > 16 mg/L

CC1=C(OCCCCCCBr)C(C)SC1=O (stereo not given)
MIC [1]: > 16 mg/L
MIC [2]: > 16 mg/L
MIC [3]: > 16 mg/L
MIC (Mycobacterium avium): > 16 mg/L

CC1=C(OCCCCCCCCN2CCN(C)CC2)C(C)SC1=O (stereo not given)
MIC [1]: > 16 mg/L
MIC [2]: > 16 mg/L
MIC [3]: > 16 mg/L
MIC (Mycobacterium avium): > 16 mg/L

CC1=C(OCCCCCCN2CCOCC2)C(C)SC1=O (stereo not given)
MIC [1]: > 16 mg/L
MIC [2]: > 16 mg/L
MIC [3]: > 16 mg/L
MIC (Mycobacterium avium): > 16 mg/L

CC1=C(OCCCCCCCCN2CCOCC2)C(C)SC1=O (stereo not given)
MIC [1]: > 16 mg/L
MIC [2]: > 16 mg/L
MIC [3]: > 16 mg/L
MIC (Mycobacterium avium): > 16 mg/L

CC1=C(OCCCN2CCOCC2)C(C)SC1=O (stereo not given)
MIC [1]: > 16 mg/L
MIC [2]: > 16 mg/L
MIC [3]: > 16 mg/L
MIC (Mycobacterium avium): > 16 mg/L

COC(=O)CSCCCCOC1=C(C)C(=O)SC1C (stereo not given)
MIC [1]: > 16 mg/L
MIC [2]: > 16 mg/L
MIC [3]: > 16 mg/L
MIC (Mycobacterium avium): > 16 mg/L

CC1=C(OCCCCCN2CCN(C)CC2)C(C)SC1=O (stereo not given)
MIC [1]: > 16 mg/L
MIC [2]: > 16 mg/L
MIC [3]: > 16 mg/L
MIC (Mycobacterium avium): > 16 mg/L

CC1=C(OCCCCCBr)C(C)SC1=O (stereo not given)
MIC [1]: > 16 mg/L
MIC [2]: > 16 mg/L
MIC [3]: > 16 mg/L
MIC (Mycobacterium avium): > 16 mg/L

CC1=C(OCCCCN2CCN(C)CC2)C(C)SC1=O (stereo not given)
MIC [1]: > 16 mg/L
MIC [2]: > 16 mg/L
MIC [3]: > 16 mg/L
MIC (Mycobacterium avium): > 16 mg/L

COC(=O)CSCCCCCOC1=C(C)C(=O)SC1C (stereo not given)
MIC [1]: > 16 mg/L
MIC [2]: > 16 mg/L
MIC [3]: > 16 mg/L
MIC (Mycobacterium avium): > 16 mg/L

COC(=O)CSCCCOC1=C(C)C(=O)SC1C (stereo not given)
MIC [1]: > 16 mg/L
MIC [2]: > 16 mg/L
MIC [3]: > 16 mg/L
MIC (Mycobacterium avium): > 16 mg/L
